According to patent US9556179B2 (BRISTOL-MYERS SQUIBB COMPANY, priority 2012, dated 2017):
pIC50: −log10 of the molar value. Counter-ions that a name gives are not always drawn.

How the values were obtained:
CK1δ = CK1δ (Homo sapiens (Human), UniProt P48730); assay: CK1δ kinase assay (Caliper LABCHIP electrophoretic separation of fluoresceinated peptide substrate and product); format: biochemical; settings: 200 pM enzyme, 50 μM ATP, 22 hours at room temperature
How it was run: (§1)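 Incubated for twenty-two hours at ambient temperature, then quenched with EDTA and analyzed by electrophoretic separation of unphosphorylated and phosphorylated peptide.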

CK1ε = CK1ε (Homo sapiens (Human), UniProt P49674); assay: CK1ε kinase assay (Caliper LABCHIP electrophoretic separation of fluoresceinated peptide substrate and product); format: biochemical; settings: 200 pM enzyme, 50 μM ATP, 22 hours at room temperature
How it was run: as §1

Sequence of CK1ε (P49674 whole entry): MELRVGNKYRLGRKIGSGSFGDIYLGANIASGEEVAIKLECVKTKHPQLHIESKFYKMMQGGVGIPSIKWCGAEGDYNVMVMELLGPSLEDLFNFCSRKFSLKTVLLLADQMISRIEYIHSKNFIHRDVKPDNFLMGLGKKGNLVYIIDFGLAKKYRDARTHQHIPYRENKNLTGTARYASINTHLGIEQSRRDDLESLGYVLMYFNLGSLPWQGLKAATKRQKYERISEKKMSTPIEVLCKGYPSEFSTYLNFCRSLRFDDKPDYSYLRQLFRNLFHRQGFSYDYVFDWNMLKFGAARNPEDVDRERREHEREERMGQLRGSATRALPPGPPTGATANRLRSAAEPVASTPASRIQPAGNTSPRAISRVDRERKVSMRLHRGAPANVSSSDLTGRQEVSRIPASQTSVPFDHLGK
Sequence of CK1δ (P48730 whole entry): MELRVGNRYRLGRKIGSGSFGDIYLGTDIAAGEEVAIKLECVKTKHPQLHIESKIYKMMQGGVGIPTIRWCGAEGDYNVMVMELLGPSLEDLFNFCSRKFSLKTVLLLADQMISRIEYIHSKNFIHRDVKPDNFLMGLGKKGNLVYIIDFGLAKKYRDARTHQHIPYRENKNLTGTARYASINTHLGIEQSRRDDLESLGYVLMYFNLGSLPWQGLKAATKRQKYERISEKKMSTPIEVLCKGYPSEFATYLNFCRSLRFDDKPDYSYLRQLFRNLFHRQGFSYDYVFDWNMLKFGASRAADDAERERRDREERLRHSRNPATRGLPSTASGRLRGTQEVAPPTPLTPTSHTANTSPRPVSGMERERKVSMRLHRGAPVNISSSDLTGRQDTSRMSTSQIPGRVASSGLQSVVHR

SMILES	pIC50 (CK1δ)	pIC50 (CK1ε)
Cc1nc(-c2cccnc2)sc1C(=O)Nc1cn2nc(-c3c(-c4ccc(F)cc4)ncn3CCN3CCOCC3)ccc2n1 [Compound 163, N-(6-(4-(4-fluorophenyl)-1-(2-morpholinoethyl)-1H-imidazol-5-yl)imidazo [1,2-b]pyridazin-2-yl)-4-methyl-2-(pyridin-3-yl) thiazole-5-carboxamide]	9.62	9.03
N#CCC(=O)Nc1cn2nc(-c3c(-c4ccc(F)cc4)ncn3CCN3CCOCC3)ccc2n1 [Compound 164, 2-cyano-N-(6-(4-(4-fluorophenyl)-1-(2-morpholinoethyl)-1H-imidazol-5-yl)imidazo [1,2-b]pyridazin-2-yl) acetamide]	8.36	7.17
O=C(Nc1cn2nc(-c3c(-c4ccc(F)cc4)ncn3CCN3CCOCC3)ccc2n1)c1ccnc2ccccc12 [Compound 166, N-(6-(4-(4-fluorophenyl)-1-(2-morpholinoethyl)-1H-imidazol-5-yl)imidazo[1,2-b]pyridazin-2-yl)quinoline-4-carboxamide]	9.72	8.88
O=C(Nc1cn2nc(-c3c(-c4ccc(F)cc4)ncn3CCN3CCOCC3)ccc2n1)c1cccc(-c2cccnc2)c1 [Compound 167, N-(6-(4-(4-fluorophenyl)-1-(2-morpholinoethyl)-1H-imidazol-5-yl)imidazo[1,2-b]pyridazin-2-yl)-3-(pyridin-3-yl)benzamide]	9.98	9.16
O=C(Nc1cn2nc(-c3c(-c4ccc(F)cc4)ncn3CCN3CCOCC3)ccc2n1)c1ccnc(N2CCOCC2)c1 [Compound 168, N-(6-(4-(4-fluorophenyl)-1-(2-morpholinoethyl)-1H-imidazol-5-yl)imidazo[1,2-b]pyridazin-2-yl)-2-morpholinoisonicotinamide]	9.96	8.76
O=C(Nc1cn2nc(-c3c(-c4ccc(F)cc4)nc4ccccn34)ccc2n1)c1ccc(-c2cc[nH]n2)cc1 [Compound 170, N-(6-(2-(4-fluorophenyl)imidazo[1,2-a]pyridin-3-yl)imidazo[1,2-b]pyridazin-2-yl)-4-(1H-pyrazol-3-yl) benzamide]	9.13	8.07
Cn1ccc(-c2cccc(C(=O)Nc3cn4nc(-c5c(-c6ccc(F)cc6)nc6ccccn56)ccc4n3)c2)n1 [Compound 171, N-(6-(2-(4-fluorophenyl)imidazo[1,2-a]pyridin-3-yl)imidazo[1,2-b]pyridazin-2-yl)-3-(1-methyl-1H-pyrazol-3-yl)benzamide]	8.70	8.11
O=C(Nc1cn2nc(-c3c(-c4ccc(F)cc4)nc4ccccn34)ccc2n1)c1csnn1 [Compound 176, N-(6-(2-(4-fluorophenyl)imidazo[1,2-a]pyridin-3-yl)imidazo[1,2-b]pyridazin-2-yl)-1,2,3-thiadiazole-4-carboxamide]	8.25	7.32
Cc1nnsc1C(=O)Nc1cn2nc(-c3c(-c4ccc(F)cc4)nc4ccccn34)ccc2n1 [Compound 178, N-(6-(2-(4-fluorophenyl)imidazo[1,2-a]pyridin-3-yl)imidazo[1,2-b]pyridazin-2-yl)-4-methyl-1,2,3-thiadiazole-5-carboxamide]	6.70	5.82
Cc1cc(C(=O)Nc2cn3nc(-c4c(-c5ccc(F)cc5)nc5ccccn45)ccc3n2)on1 [Compound 179, N-(6-(2-(4-fluorophenyl)imidazo[1,2-a]pyridin-3-yl)imidazo[1,2-b]pyridazin-2-yl)-3-methyl-5-isoxazolecarboxamide]	9.69	8.53
Cn1ccc(C(=O)Nc2cn3nc(-c4c(-c5ccc(F)cc5)nc5ccccn45)ccc3n2)n1 [Compound 181, N-(6-(2-(4-fluorophenyl)imidazo[1,2-a]pyridin-3-yl)imidazo[1,2-b]pyridazin-2-yl)-1-methyl-1H-pyrazole-3-carboxamide]	8.40	7.97
O=C(Nc1cn2nc(-c3c(-c4ccc(F)cc4)nc4ccccn34)ccc2n1)c1cncnc1 [Compound 182, N-(6-(2-(4-fluorophenyl)imidazo[1,2-a]pyridin-3-yl)imidazo[1,2-b]pyridazin-2-yl)-5-pyrimidinecarboxamide]	9.28	8.21
O=C(Nc1cn2nc(-c3c(-c4ccc(F)cc4)nc4ccccn34)ccc2n1)c1ccncc1 [Compound 186, N-(6-(2-(4-fluorophenyl)imidazo[1,2-a]pyridin-3-yl)imidazo[1,2-b]pyridazin-2-yl)isonicotinamide]	7.99	7.94
O=C(Nc1cn2nc(-c3c(-c4ccc(F)cc4)nc4ccccn34)ccc2n1)c1csc(-c2ccncc2)n1 [Compound 187, N-(6-(2-(4-fluorophenyl)imidazo[1,2-a]pyridin-3-yl)imidazo[1,2-b]pyridazin-2-yl)-2-(pyridin-4-yl)thiazole-4-carboxamide]	7.98	7.52
O=C(Nc1cn2nc(-c3c(-c4ccc(F)cc4)nc4ccccn34)ccc2n1)c1csc(-c2cccnc2)n1 [Compound 188, N-(6-(2-(4-fluorophenyl)imidazo[1,2-a]pyridin-3-yl)imidazo[1,2-b]pyridazin-2-yl)-2-(pyridin-3-yl)thiazole-4-carboxamide]	8.45	8.01
COc1ccc(-c2nc(C(=O)Nc3cn4nc(-c5c(-c6ccc(F)cc6)nc6ccccn56)ccc4n3)cs2)cc1 [Compound 189, N-(6-(2-(4-fluorophenyl)imidazo[1,2-a]pyridin-3-yl)imidazo[1,2-b]pyridazin-2-yl)-2-(4-methoxyphenyl) thiazole-4-carboxamide, 3 HCl]	7.77	7.49
N#Cc1ccc(-c2nc(C(F)(F)F)c(C(=O)Nc3cn4nc(-c5c(-c6ccc(F)cc6)nc6ccccn56)ccc4n3)s2)cc1 [Compound 190, 2-(4-cyanophenyl)-N-(6-(2-(4-fluorophenyl)imidazo [1,2-a]pyridin-3-yl)imidazo [1,2-b]pyridazin-2-yl)-4-(trifluoromethyl)thiazole-5-carboxamide]	8.32	8.22
O=C(Nc1cn2nc(-c3c(-c4ccc(F)cc4)nc4ccccn34)ccc2n1)c1ccccc1 [Compound 191, N-(6-(2-(4-fluorophenyl)imidazo[1,2-a]pyridin-3-yl)imidazo[1,2-b]pyridazin-2-yl)benzamide]	8.68	8.52

More lines, in order of rising pIC50 (CK1δ), values ahead:

pIC50 (CK1δ)	pIC50 (CK1ε)	SMILES
8.12	7.11	O=C(Nc1cn2nc(-c3c(-c4ccc(F)cc4)nc4ccccn34)ccc2n1)c1nc2ccccc2s1 [Compound 184, N-(6-(2-(4-fluorophenyl)imidazo[1,2-a]pyridin-3-yl)imidazo[1,2-b]pyridazin-2-yl)-1,3-benzothiazole-2-carboxamide]
8.17	7.62	O=C(Nc1cn2nc(-c3c(-c4ccc(F)cc4)nc4ccccn34)ccc2n1)c1cc[nH]n1 [Compound 177, N-(6-(2-(4-fluorophenyl)imidazo[1,2-a]pyridin-3-yl)imidazo[1,2-b]pyridazin-2-yl)-1H-pyrazole-3-carboxamide]
8.33	7.27	O=C(CO)Nc1cn2nc(-c3c(-c4ccc(F)cc4)ncn3CCN3CCOCC3)ccc2n1 [Compound 165, N-(6-(4-(4-fluorophenyl)-1-(2-morpholinoethyl)-1H-imidazol-5-yl)imidazo [1,2-b]pyridazin-2-yl)-2-hydroxyacetamide]
8.41	7.71	O=C(Nc1cn2nc(-c3c(-c4ccc(F)cc4)nc4ccccn34)ccc2n1)c1cnc2ccccc2n1 [Compound 175, N-(6-(2-(4-fluorophenyl)imidazo[1,2-a]pyridin-3-yl)imidazo[1,2-b]pyridazin-2-yl)-2-quinoxalinecarboxamide]
8.80	7.92	Cn1nccc1C(=O)Nc1cn2nc(-c3c(-c4ccc(F)cc4)nc4ccccn34)ccc2n1 [Compound 180, N-(6-(2-(4-fluorophenyl)imidazo[1,2-a]pyridin-3-yl)imidazo[1,2-b]pyridazin-2-yl)-1-methyl-1H-pyrazole-5-carboxamide]
9.31	8.28	O=C(Nc1cn2nc(-c3c(-c4ccc(F)cc4)nc4ccccn34)ccc2n1)c1cc(F)nc(F)c1 [Compound 169, 2,6-difluoro-N-(6-(2-(4-fluorophenyl)imidazo[1,2-a]pyridin-3-yl)imidazo[1,2-b]pyridazin-2-yl)isonicotinamide]
9.38	8.60	O=C(Nc1cn2nc(-c3c(-c4ccc(F)cc4)ncn3CCN3CCOCC3)ccc2n1)c1ccnc(F)c1 [Compound 161, 2-fluoro-N-(6-(4-(4-fluorophenyl)-1-(2-morpholinoethyl)-1H-imidazol-5-yl)imidazo[1,2-b]pyridazin-2-yl) isonicotinamide]
9.51	8.62	O=C(Nc1cn2nc(-c3c(-c4ccc(F)cc4)ncn3CCN3CCOCC3)ccc2n1)c1cc(F)nc(F)c1 [Compound 162, 2,6-difluoro-N-(6-(4-(4-fluorophenyl)-1-(2-morpholinoethyl)-1H-imidazol-5-yl)imidazo[1,2-b]pyridazin-2-yl)isonicotinamide]
9.68	8.42	N#Cc1ccc(C(=O)Nc2cn3nc(-c4c(-c5ccc(F)cc5)nc5ccccn45)ccc3n2)cn1 [Compound 183, 6-cyano-N-(6-(2-(4-fluorophenyl)imidazo[1,2-a]pyridin-3-yl)imidazo[1,2-b]pyridazin-2-yl)nicotinamide]
9.95	8.89	CN(C)c1cc(C(=O)Nc2cn3nc(-c4c(-c5ccc(F)cc5)nc5ccccn45)ccc3n2)ccn1 [Compound 193, 2-(dimethylamino)-N-(6-(2-(4-fluorophenyl)imidazo[1,2-a]pyridin-3-yl)imidazo[1,2-b]pyridazin-2-yl) isonicotinamide]
10.02	8.98	CC(C)(C)C(=O)Nc1cc(C(=O)Nc2cn3nc(-c4c(-c5ccc(F)cc5)nc5ccccn45)ccc3n2)ccn1 [Compound 192, N-(6-(2-(4-fluorophenyl)imidazo[1,2-a]pyridin-3-yl)imidazo[1,2-b]pyridazin-2-yl)-2-pivalamidoisonicotinamide]
